Article PMC11887451, “Leveraging Immunogenic Cell Death to Enhance the Immune Response against Malignant Pleural Mesothelioma Tumors” (Journal of the American Chemical Society, 2025)

Key:
[1] = tested on: patient-derived VMC23 cell line (epithelioid MPM); assay: MTT cytotoxicity assay, 72 h, VMC23; assay type: cell-based, human; details: exposure time 72 h
Text: (§1) Human malignant mesothelioma cancer cell lines JU77 and LO68 were obtained from Cell Bank Australia (Children's Medical Research Institute, Westmead, Australia). Mouse malignant mesothelioma cancer cell line AB12, human nonmalignant mesothelioma cancer cell line Met5A (mesothelial cells), mouse macrophage cell line J774 and human monocytic cell line THP-1 were obtained from American Type Culture Collection (ATCC) (Rockville, MD, USA). Human malignant mesothelioma cell lines VMC23 (epithelial), Meso82 (sarcomatous), Meso92 (biphasic), were kindly provided by Prof. Walter Berger (Medical University of Vienna). All cells except for J774 were cultured in RPMI and J774 cells were cultured in DMEM. Both types of media were supplemented with 10% FBS and 1% penicillin-streptomycin (10,000 U/mL). Cells were grown in tissue culture flasks (75 cm2 and 25 cm2, SPL Life Sciences Co., Ltd., Korea). All cell lines were grown at 37 °C in a humidified atmosphere of 95% air and 5% CO 2 and passaged when they reached 80–90% confluency. All Au stock solutions were prepared in 1% DMSO in the respected medium, ensuring that cell viability was not inhibited.
(§2) The cytotoxicity of compounds was determined using an MTT colorimetric test. The cells were harvested from culture flasks by trypsinization and seeded into Cellstar 96 -well microculture plates (Greiner Bio -One) at the seeding density of 6000 cells per well (6 × 10^4 cells/mL). After
(§3) the cells were allowed to resume exponential growth for 16 h, they were exposed to drugs at
(§4) different concentrations in media for 72 h. The drugs were diluted in a complete medium at the desired concentration added to each well (100 μL) and serially diluted in other wells. After exposure for 72 h, the media was replaced with MTT in media (5 mg/mL, 100 μL/well) and
(§5) incubated for an additional 50 min. Subsequently, the medium was aspirated, and the purple formazan crystals formed in viable cells were dissolved in DMSO (100 μL/well). Optical densities were measured at 570 nm using a BioTek Synergy H1 microplate and MultiskanTM SkyHigh plate readers. The quantity of viable cells was expressed in terms of treated/control (T/C) values in comparison to untreated control cells, and 50% inhibitory concentrations (IC 50) were calculated from concentration-effect curves by interpolation. An evaluation was based on means from at least three independent experiments, each comprising three replicat es per

[2] = tested on: human malignant mesothelioma cell line LO68; assay: MTT cytotoxicity assay, 72 h, LO68; assay type: cell-based; details: exposure time 72 h
[3] = tested on: human malignant mesothelioma cell line JU77; assay: MTT cytotoxicity assay, 72 h, JU77; assay type: cell-based; details: exposure time 72 h
Text: as §1, §2, §3, §4, §5

[4] = tested on: AB12 cells in BALB/c mice; assay: In vivo vaccination model; set-up: species or system mouse; details: within the first 30 days after vaccination, n = 8
Text: Initially, AB12 cells underwent pretreatment with varying concentrations of Au(III) complexes, and the induced cell death and release of desired ICD biomarkers were monitored over time. Upon reaching a cell death rate of 65%–75%, BALB/c mice (n = 8) were subcutaneously injected in the left flank with a vaccine containing 3 × 10^5 of live/dying/dead cells, while the vehicle group received injections of PBS. Seven days postvaccine administration, the immunized mice were rechallenged by inoculating the same number of live AB12 cells (without any prior treatment) into the right flanks (Figure 5A). The progression of tumor growth on the right flanks was monitored using a caliper.
AB12 cells were seeded into Cellstar 24-well plates (Greiner Bio-One) at a density of 1.8 × 104
cells/ml (1 ml per well) and allowed to grow exponentially for 16 hours. Subsequently, the
medium was replaced with 1 ml of fresh medium containing compounds of interest at
predetermined concentrations (with a minimum of 4 wells per treatment condition). These
concentrations were selected to induce 65-75% cell death.
Subsequently, the culture
medium was aspirated, and the cells were washed twice with 1 mL of PBS. The cell
concentration was adjusted to 3 × 10^5 cells (including dead/dying/live cells) per 100 μL of PBS,
and the ratio of dead/live cells was assessed using the Invitrogen Countess 3 cell counter. In
the subsequent experiment, BALB/c mice (8 mice per group) were subcutaneously injected
with 0.1 mL of AB12 cells (3 × 10^5 cells/mL, including dead/dying/live cells) or the
corresponding vehicle (PBS) on the left flank. Tumor growth was monitored daily.
After 7 days, the mice were subcutaneously injected with
0.1 mL of AB12 cells (3 × 10^5 cells/mL, live cells) on the right flank. Regular measurements
of body weights and tumor sizes were taken. Mice that developed palpable tumors were
euthanized for further analysis.

[5] = tested on: patient-derived Meso84 cell line (sarcomatoid MPM); assay: MTT cytotoxicity assay, 72 h, Meso84; assay type: cell-based, human; details: exposure time 72 h
[6] = tested on: murine malignant mesothelioma cell line AB12; assay: MTT cytotoxicity assay, 72 h, AB12; assay type: cell-based, mouse; details: exposure time 72 h
Text: as §1, §2, §3, §4, §5

[7] = tested on: calreticulin (CRT) in AB12 cells; details: AB12, 5 × IC50, 120 min
Experimental: emission was detected at 525/40 nm for FITC (CRT).
Confocal microscopy experiments
AB12 cells were seeded into confocal dishes (Biosharp) at a density of 3 × 10^5 cells/dish (1
mL per dish). The cells were allowed to resume exponential growth for 16 h. Afterwards, the
cells were incubated with a fresh medium containing compounds at their respective 5 × IC50
concentrations for 2 h at 37°C. After the treatment, the dishes were washed with 1 ml of PBS,
fixed in 4% paraformaldehyde in PBS at r. t. for 20 min and washed twice with 1 mL of PBS.
The dishes were then incubated with CRT antibody conjugated with Alexa Fluor 488 (1:200 in
the dishes were incubated with Wheat Germ Agglutinin conjugated with Alexa Fluor 633 dye
(W21404, Invitrogen) at r. t. in darkness for 30 min, washed with 1 mL of PBS, stained with
propidium iodide (PI) for 10 min at r. t. in darkness and washed with 1 mL of PBS. Samples
were stored in 1 mL of PBS. The confocal images were acquired by Laser Confocal Scanning

[8] = tested on: human nonmalignant mesothelioma cell line Met5A; assay: MTT cytotoxicity assay, 72 h, Met5A; assay type: cell-based; details: exposure time 72 h
Text: Cell lines and culture conditions
Mouse malignant mesothelioma cancer cell line AB12, human nonmalignant mesothelioma cancer cell line Met5A (mesothelial cells), mouse macrophage cell line J774 and human monocytic cell line THP-1 were obtained from American Type Culture Collection (ATCC) (Rockville, MD, USA). Human malignant mesothelioma cell lines VMC23 (epithelial), Meso82 (sarcomatous), Meso92 (biphasic), were kindly provided by Prof. Walter Berger (Medical University of Vienna). All cells except for J774 were cultured in RPMI and J774 cells were cultured in DMEM. Both types of media were supplemented with 10% FBS and 1% penicillin-streptomycin (10,000 U/mL). Cells were grown in tissue culture flasks (75 cm2 and 25 cm2, SPL Life Sciences Co., Ltd., Korea). All cell lines were grown at 37 °C in a humidified atmosphere of 95% air and 5% CO 2 and passaged when they reached 80–90% confluency. All Au stock solutions were prepared in 1% DMSO in the respected medium, ensuring that cell viability was not inhibited. The Au concentration in the stock solutions was confirmed through inductively coupled plasma optical emission spectrometry. The stock solution of pemetrexed (10 mM) was prepared in Milli -Q water.
Inhibition of c ell viability assay
as §2, §3, §4, §5

[9] = tested on: patient-derived Meso92 cell line (biphasic MPM); assay: MTT cytotoxicity assay, 72 h, Meso92; assay type: cell-based, human; details: exposure time 72 h
[10] = tested on: AB12 cells phagocytosed by J774 macrophages; assay: Phagocytosis assay, flow cytometry; assay type: cell-based, mouse; details: AB12 treated 100 min at 5 × IC50 (72 h), 16 h with J774 macrophages
Experimental: page 21: incubated for an additional 50 min. Subsequently, the medium was aspirated, and the purple formazan crystals formed in viable cells were dissolved in DMSO (100 μL/well). Optical densities were measured at 570 nm using a BioTek Synergy H1 microplate and MultiskanTM SkyHigh plate readers. The quantity of viable cells was expressed in terms of treated/control (T/C) values in comparison to untreated control cells, and 50% inhibitory concentrations (IC 50) were calculated from concentration-effect curves by interpolation. An evaluation was based on means from at least three independent experiments, each comprising three […] concentration level. For macrophage analyses, the acute monocytic leukemia -derived THP-1 cell line (ATCC) was used as a model. 1 × 104 THP-1 cells were seeded per well in 96-well plates in RPMI-1640 with 10% FCS and treated for 24 h with 75 nM phorbol 12-myristate 13-acetate (PMA, Sigma- Aldrich) to induce M0 macrophage differentiation. After the differentiation period, PMA was replaced by fresh culture medium to recover for 2h. Afterwards increasing concentrations of 1G, 5A, 5B and 5G were added for a 72-h continuous drug exposure assay. In parallel, the […] were allowed to attach for 24 h. Gold compounds were added to the cells as described for the THP-1 model above. After the incubation period of 72 h, cell viability was determined by an MTT-based assay (EU4U, Biomedica) following the instructions of the manufacturer. DMSO had not impact on the cell viability at the concentrations used. Flow cytometry experiments Phagocytosis assay […] with RPMI, centrifuged (300 × g, 5 min) and labelled with CellTracker Red CMTPX Dye (0.72 μM for 5 × 10^5 cells) at 37°C for 30 minutes in 1 ml of serum -free RPMI. Following S21 page 22: centrifugation of the cells (300 × g, 5 min), 5 ml of fresh RPMI was introduced, and the cells were seeded at a density of 5 x 10^5 cells per well into Cellstar 6-well plates (Greiner Bio-One) (1 ml per well). J774 macrophages (70-80% confluence in a T75 flask) were detached by scraping, centrifuged (300 × g, 5 min). The medium was substituted with 1 ml of DMEM containing CellTracker Green CMFDA (1 μM) and the J774 macrophages were stained at 37°C for 30 minutes. Following centrifugation of the J774 macrophages (300 × g, 5 min), 5 ml of fresh DMEM was introduced, and the macrophages were seeded into a 100 cm2 petri dish (SPL Life Sciences, Korea). After 24 h, the media in AB12 cells was replaced with 1 ml of fresh […] for 100 minutes. After removing the drug-containing media, the cells were trypsinized (0.5 ml), neutralized with 1 ml of RPMI, centrifuged (300 × g, 5 min) and counted. From each sample, […] cells into 6-well plates. AB12 cells and J774 macrophages were co-incubated for 16 h at 37°C and 5% CO2, detached by scraping, centrifuged (300 × g, 5 min), and the pellets were resuspended in PBS for immediate analysis using a CytoFLEX Flow Cytometer (Beckman Coulter, USA). The percentage of phagocytosis was determined by calculating the number of double-positive macrophages (Q2) over the total number of macrophages (Q2 + Q3). […] Annexin V/PI assay AB12 cells were seeded into Cellstar 6-well plates (Greiner Bio-One) at a density of 5 × 10^5 cells/well (1 ml per well). […] The medium was removed and cells were washed with PBS (2 × 1 mL). Afterwards the cells were […] S22

[11] = Aqueous stability by RP-HPLC in 1:1 DMSO:H2O over 72 h; assay type: physicochemical; details: room temperature
Experimental: The aqueous stability of the Au(III)–DTC complexes was assessed by monitoring their RP-HPLC profiles in a 1:1 DMSO:H2O mixture at room temperature over a 3-day period (Supplementary Figures 112–146).
Determination of the purity of cyclometalated Au( III) complexes was performed using analytical HPLC on a Shimadzu Prominence System equipped with a DGU -20A3 Degasser, two LC-20AD Liquid Chromatography Pump, a SPD-20A UV/Vis Detector and a Shim Pack GVP-ODS 2.0 mm 18 column ([…], 120Å, 250 mm × 4.60 mm i.d.). The analysis was conducted at r.t. with a flow rate of 1.0 mL/min and detection at 254 and 280 nm. Mobile phase A was H2O + 0.1% Trifluoroacetic acid (TFA) while mobile phase B is ACN + 0.1% TFA. The gradient program parameters were as follows: mobil e phase B was increased from 30 to 95% over 30 min. 95% mobile phase B was maintained for 10 min, 95 to 30% over 5 min, and finally returned to 30% for 10 min for the next analysis. LogP values of the complexes were calculated based on the HPLC retention times derived from the calibration standard curve. The calibration standard curve was established using 2-butanone, phenylacetonitrile, anisole, ethyl benzoate, benzophenone, diphenyl ether and triphenylamine. To conduct an aqueous stability study, the HPLC profiles of the sample stock solutions were diluted to a 1:1 ratio of DMSO to […]
water. […]

[12] = tested on: calreticulin (CRT) in AB12 cells; assay: CRT detection, flow cytometry; assay type: cell-based, mouse; details: AB12, 5 × IC50 (72 h), 120 min
Experimental: page 23: concentrations for 100 min at 37 °C. After the treatment, the supernatant was collected in 2 mL microtubes, centrifuged (300 × g, 5 min) and the media was removed. The adherent cells were then trypsinized with 500 μL of trypsin at 37 °C for 5 min. Next, 1 mL of medium was added to neutralize trypsin and the resulting cell suspension was combined with the supernatant. The wells were washed with 200 μL of PBS, which was also combined with the supernatant. The combined solutions were centrifuged (300 × g, 5 min), and the resulting pellets were washed with PBS (2 × 1 mL) and resuspended in 200 μL of Annexin V binding buffer. […] Cell death was evaluated by flow cytometry using a CytoFLEX Flow Cytometer equipped with a 488 nm laser and a 638 nm laser (Beckman Coulter, Brea, CA, USA). The cells were excited by the 488 nm laser, and fluorescence emissions were detected at 525/40 nm for FITC (Annexin V) and at 610/20 nm for ECD (PI). […] The percentage of necrosis was determined by calculating the sum of cells in Q1 and Q2. […] Next, cells were incubated with CRT antibody conjugated with AlexaFluor S23 page 24: 488 (62304S, Cell Signaling Technology) at 4 °C overnight, washed twice with PBS, reconstituted in 500 µL of PBS and analyzed by flow cytometry using a CytoFLEX Flow Cytometer equipped with a 488 nm laser and a 638 nm laser (Beckman Coulter, Brea, CA, USA). […]

Compound: COc1cccc2c1C(=O)c1c(O)c3c(c(O)c1C2=O)C[C@@](O)(C(=O)CO)C[C@@H]3O[C@H]1C[C@H](N)[C@H](O)[C@H](C)O1 [doxorubicin]
- chromatographic logP (physchem): 0.68

Compound: CCCC[N+](CCCC)=C1[S][Au-]2([S]1)[c]1ccccc1C(OC)c1cccc[n+]12.F[P-](F)(F)(F)(F)F (racemic) [4C]
- IC50 [1]: 2.5 ± 0.2 µM
- IC50 [2]: 3.1 ± 0.3 µM
- IC50 [3]: 1600 ± 100 nM
- mice that developed tumors after vaccination [4]: ≈ 50%
- IC50 [5]: 2.7 ± 0.8 µM
- IC50 [6]: 3.1 ± 0.4 µM
- CRT translocation, confocal microscopy [7]: translocation of CRT to the plasma membrane
- IC50 [8]: 3000 ± 700 nM
- IC50 [9]: 4.5 ± 0.8 µM
- phagocytosis rate [10]: 37% ± 12%
- hydrolysis over the 72-h period [11]: less than 10%
- minor RP-HPLC peak, share of the total area after 24 h ([11]; 24 h): 2%
- minor RP-HPLC peak, share of the total area after 72 h ([11]; 72 h): 8%

Compound: N.N.[Cl][Pt][Cl] [Cisplatin, cisplatin, reference compound]
- IC50 [1]: 3.6 ± 1 µM
- IC50 [2]: 20 ± 6 µM
- IC50 [3]: 4200 ± 500 nM
- IC50 [5]: 17 ± 2 µM
- IC50 [6]: 4.5 ± 0.8 µM
- IC50 [8]: 2000 ± 500 nM
- IC50 [9]: 4 ± 0.9 µM
- CRT expression (in words) [12]: no changes in CRT expression
- phagocytosis / ICD response (in words) [10]: failed to initiate any ICD response
